Results on 15 compounds are retold here after patent publication US9416115B2, “Fused heterocyclic compounds as ion channel modulators” (Gilead Sciences, Inc., priority 2013, dated 2016).

Read-outs that look alike come from different tables or passages of the source.

The target of experiment [1] is wild-type human cardiac sodium channel, hNav1.5 (Homo sapiens, UniProt Q14524). Briefly: Peak INa screening assay (tonic block and use-dependent block). Format: cell-based. On the procedure: The cardiac late sodium current (Late INa) and peak sodium current (Peak INa) assays are performed on an automated electrophysiology platform, QPatch 16X or QPatch HT (Sophion Bioscience, Copenhagen, Denmark) using the whole cell patch clamp technique to measure currents through the cell membrane. The assay uses an HEK293 (human embryonic kidney) cell line heterologously expressing the wild-type human cardiac sodium channel, hNav1.5, purchased from Millipore (Billerica, Mass.). No beta subunits were coexpressed with the Na channel alpha subunit. Cells are maintained with standard tissue culture procedures and stable channel expression is maintained with 400 μg/mL Geneticin in the culture medium. Experiments are carried out at 23-25° C.
Chain of wild-type human cardiac sodium channel, hNav1.5 (Q14524 whole entry): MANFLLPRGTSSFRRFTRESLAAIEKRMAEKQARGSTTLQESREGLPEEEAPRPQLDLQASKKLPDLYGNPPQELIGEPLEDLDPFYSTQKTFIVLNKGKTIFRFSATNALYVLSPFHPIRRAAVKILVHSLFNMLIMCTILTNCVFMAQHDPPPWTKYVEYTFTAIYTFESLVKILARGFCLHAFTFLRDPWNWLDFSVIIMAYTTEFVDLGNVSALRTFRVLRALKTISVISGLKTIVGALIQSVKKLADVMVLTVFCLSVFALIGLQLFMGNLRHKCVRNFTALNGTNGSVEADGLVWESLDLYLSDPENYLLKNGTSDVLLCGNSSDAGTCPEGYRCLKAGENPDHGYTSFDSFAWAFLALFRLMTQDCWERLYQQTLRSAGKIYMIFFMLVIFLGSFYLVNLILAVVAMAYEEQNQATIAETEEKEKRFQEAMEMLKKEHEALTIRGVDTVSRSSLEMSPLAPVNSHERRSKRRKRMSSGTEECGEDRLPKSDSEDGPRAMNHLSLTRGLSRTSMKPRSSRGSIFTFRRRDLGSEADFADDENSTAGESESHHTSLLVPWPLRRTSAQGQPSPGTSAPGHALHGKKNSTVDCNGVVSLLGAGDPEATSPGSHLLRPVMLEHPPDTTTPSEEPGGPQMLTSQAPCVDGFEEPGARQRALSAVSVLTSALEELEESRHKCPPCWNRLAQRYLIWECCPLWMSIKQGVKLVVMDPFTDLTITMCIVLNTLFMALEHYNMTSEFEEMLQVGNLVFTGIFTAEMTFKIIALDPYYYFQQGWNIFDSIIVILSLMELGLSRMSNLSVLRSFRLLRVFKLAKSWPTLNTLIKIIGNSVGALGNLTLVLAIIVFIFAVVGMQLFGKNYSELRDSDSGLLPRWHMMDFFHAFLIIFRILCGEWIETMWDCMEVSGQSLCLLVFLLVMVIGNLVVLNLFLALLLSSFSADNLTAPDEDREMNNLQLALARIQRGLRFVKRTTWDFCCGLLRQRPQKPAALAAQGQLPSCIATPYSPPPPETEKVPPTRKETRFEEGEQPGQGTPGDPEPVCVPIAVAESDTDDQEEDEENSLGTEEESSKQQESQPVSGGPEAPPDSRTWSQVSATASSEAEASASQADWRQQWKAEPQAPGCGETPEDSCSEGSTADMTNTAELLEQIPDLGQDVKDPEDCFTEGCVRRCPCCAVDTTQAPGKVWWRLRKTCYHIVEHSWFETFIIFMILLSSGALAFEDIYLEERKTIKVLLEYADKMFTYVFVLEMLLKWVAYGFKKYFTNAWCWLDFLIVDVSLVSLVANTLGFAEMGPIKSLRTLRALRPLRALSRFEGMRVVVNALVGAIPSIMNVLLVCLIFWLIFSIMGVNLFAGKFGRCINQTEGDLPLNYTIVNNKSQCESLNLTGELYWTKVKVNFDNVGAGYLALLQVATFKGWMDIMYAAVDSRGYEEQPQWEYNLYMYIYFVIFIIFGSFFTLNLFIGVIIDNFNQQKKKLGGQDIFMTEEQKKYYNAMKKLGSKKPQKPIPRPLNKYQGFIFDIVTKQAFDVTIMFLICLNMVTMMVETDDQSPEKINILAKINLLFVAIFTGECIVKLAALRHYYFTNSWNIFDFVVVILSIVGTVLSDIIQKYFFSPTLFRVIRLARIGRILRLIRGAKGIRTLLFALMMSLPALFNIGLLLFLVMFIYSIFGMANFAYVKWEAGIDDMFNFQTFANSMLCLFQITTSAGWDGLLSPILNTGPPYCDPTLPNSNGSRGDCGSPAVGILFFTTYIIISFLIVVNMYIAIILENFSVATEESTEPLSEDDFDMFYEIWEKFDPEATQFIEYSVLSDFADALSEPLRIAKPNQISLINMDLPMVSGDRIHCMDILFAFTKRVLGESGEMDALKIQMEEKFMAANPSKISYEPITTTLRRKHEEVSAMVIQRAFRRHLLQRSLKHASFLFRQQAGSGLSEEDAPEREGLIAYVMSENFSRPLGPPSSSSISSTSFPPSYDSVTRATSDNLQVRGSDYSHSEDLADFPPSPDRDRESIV
For both the Late INa and Peak INa assays, series resistance compensation is set to 100% and series resistance and whole-cell compensation are performed automatically. Currents are digitized at 25 kHz and low-pass filtered at 5 kHz and stored in the Sophion Bioscience Oracle database (Sophion Bioscience, Copenhagen, Denmark). Analysis is performed using QPatch Assay software and data are compiled in Excel 2010 (Microsoft, Seattle, Wash., U.S.A.).
Compound stocks are routinely made by the Gilead Sample Bank in vials to 10 mM in dimethyl sulfoxide (DMSO). In some cases, when compounds are not soluble in DMSO, they are made in 100% ethanol. Stocks are sonicated as necessary. The extracellular solution for screening Late INa is composed of: 140 mM NaCl, 4 mM KCl, 1.8 mM CaCl2, 1 mM MgCl2, 10 mM HEPES and 10 mM Dextrose with pH adjusted to 7.35 using NaOH. The intracellular solution contains: 105 mM CsF, 20 mM CsCl, 10NaF, 2 mM EGTA, 10 mM HEPES and 10 mM Dextrose with pH adjusted to 7.35 with CsOH. Compounds are diluted in extracellular solution using a MicroLab Nimbus (Hamilton Robotics, Reno, Nev.) to between 0.3 and 3 μM in glass vials and transferred to glass well plates before robotic addition to the cells. The 0 mM Na extracellular solution (0Na-ECF) used at the end of each experiment for the Late INa and Peak INa assays to measure baseline current contains: 140 Choline-Cl; 4 mM KCl, 1.8 mM CaCl2; 1 mM MgCl2; 10 mM HEPES and 10 mM Dextrose with pH was adjusted to 7.35 with CsOH.
Compounds were evaluated for their effect Nav1.5 Peak INa. It is contemplated that the compounds of Formula I avoid significant block of peak INa. Since the peak INa in the cells used herein can be very large, introducing artifacts in the recording, the concentration of Na^+ in the bath can be reduced to 40 mM by isosmotic replacement of Na^+ with Choline (see below).
Tonic Block (TB) of Peak INa was measured using a voltage step to −20 mV from a holding potential of −100 mV at a low stimulation frequency of 0.1 Hz. Use-Dependent Block (UDB) of Peak INa was measured during pulse number 50 of a pulse train (−20 mV, 20 ms, 50 pulses, 3 Hz) from a holding potential of −100 mV.
The extracellular solution for screening Peak INa is composed of: 40 mM NaCl, 100 mM Choline-Cl, 4 mM KCl, 1.8 mM CaCl2, 1 mM MgCl2 10 mM HEPES and 10 mM Dextrose with pH adjusted to 7.35 using NaOH. The intracellular solution used for the Peak INa assay is the same as outlined for the Late INa assay (see above).
After establishing the whole cell recording configuration, channels were stimulated to open with low frequency (0.1 Hz) so that the recording can be monitored and the extent to which the recording has stabilized can be assessed.
The test compound is then applied at 1 or 3 μM and was added 2 times at 60 second intervals. After the second compound addition, a 200 second wait period was imposed to allow for equilibration. Voltage protocols for TB and UDB are were performed in the absence and presence of compound and TB and UDB are calculated with respect to the compound free condition. Both TB and UDB were analyzed by incorporating rundown correction for the peak INa.

The target of a further experiment is hNav1.1 (SCN1A) (Homo sapiens, UniProt P35498). Briefly: Use-dependent inhibition of the CNS Nav1.1 sodium channel. The experiment is classed as cell-based. The following applies: use-dependent block, 25 Hz, pulse 20, read-out: Nav1.1 UDB 25 Hz 10 uM. On the procedure: HEK-293 cells stably expressing wild-type (WT) hNav1.1 (SCN1A, NCBI# AB09354) were obtained from Millipore (Cat. # CYL3009) were used to record INa. Cells are maintained with standard tissue culture procedures and stable channel expression is maintained with 400 ug/mL G418 in the culture medium. Unless otherwise noted, all reagents are purchased from Sigma-Aldrich (St Louis, Mo., U.S.A.).
Assays measuring Use-Dependent Block (UDB) of Nav1.2 are performed on an automated electrophysiology platform, QPatch 16X or QPatch HT (Sophion Bioscience, Copenhagen, Denmark), using the whole cell patch clamp technique to measure currents through the cell membrane. Series resistance compensation is set to 100% and series resistance and whole-cell compensation are performed automatically. Currents stored in the Sophion Bioscience Oracle database (Sophion Bioscience, Copenhagen, Denmark). Analysis is performed using QPatch Assay software and data are compiled in Excel 2010 (Microsoft, Seattle, Wash., U.S.A.).
The internal (pipette) solution consists of (in mM) 105 CsF, 10 NaF, 20 CsCl, 2 EGTA, 10 HEPES, 10 Dextrose with a pH of 7.35 and osmolarity of 300 mOsmol/kg. The external (bath) solution contains in (mM): 145 NaCl, 4 KCl, 1.8 CaCl2, 1 MgCl2, 10 dextrose, 10 HEPES, with a pH of 7.35 and osmolarity of 310 mOsmol/kg. Experiments are carried out at 23-25° C.
Compound stocks are routinely made by the Gilead Sample Bank in vials to 10 mM in dimethyl sulfoxide (DMSO). In some cases, when compounds are not soluble in DMSO, they are made in 100% ethanol. Stocks are sonicated as necessary. […]
Cells are allowed to stabilize for 10 min after establishment of the whole-cell configuration before current is measured. The test compound is applied 2 times at 60 second intervals. After the second compound addition, a 200 second wait period was imposed to allow for equilibration. Leak currents are subtracted by using an online P/4 procedure and all currents are low-pass Bessel filtered at 5 kHz and digitized at […].
Use-dependent block of Nav1.2 peak current is measured during pulse number 20 of a voltage pulse train (0 mV, 20 ms, 20 pulses, 25 Hz) from a holding potential of −120 mV. Currents are normalized to the peak current recorded in response to the first pulse in each frequency train. The voltage protocol for UDB was performed in the absence and presence of compound and percentage inhibition was calculated with respect to the compound free condition. Results are presented as mean percentage inhibition and data analysis is performed using QPatch Assay Software 4.0, and Excel 2002 (Microsoft, Seattle, Wash., U.S.A.).

Setting [2] is: tonic block of Peak INa, 0.1 Hz, holding -100 mV, read-out: Peak TB 3 uM.
[3] abbreviates: use-dependent block of Peak INa, 3 Hz, pulse 50, read-out: Peak UDB 3 Hz 3 uM.

On to `CCn1ccnc1COc1noc2ccc(-c3ccc(OC(F)(F)F)cc3)cc12` [Example 47, 3-((1-ethyl-1H-imidazol-2-yl)methoxy)-5-(4-(trifluoromethoxy)phenyl)benzo[d]isoxazole], for which the inhibition at 3 µM was determined as 21.7% in experiment [1] (setting [2]) and 8.5% in experiment [1] (setting [3]). In addition, on hNav1.1 (SCN1A), the inhibition at 10 µM was 55.5%.
The corresponding values for `FC(F)(F)Oc1ccc(-c2ccc3onc(OCc4ncco4)c3c2)cc1` [Example 53, 3-(oxazol-2-ylmethoxy)-5-(4-(trifluoromethoxy)phenyl)benzo[d]isoxazole] are 43.4%, below 5% and below 5%.
The corresponding values for `FC(F)(F)Oc1ccc(-c2ccc3onc(OCCn4cncn4)c3c2)cc1` [Example 58, 3-(2-(1H-1,2,4-triazol-1-yl)ethoxy)-5-(4-(trifluoromethoxy)phenyl)benzo[d]isoxazole] are 22.2%, below 5% and 43.5%.
As to `O=C1CCCN1CCOc1noc2ccc(-c3ccc(OC(F)(F)F)cc3)cc12` [Example 59, 1-(2-((5-(4-(trifluoromethoxy)phenyl)benzo[d]isoxazol-3-yl)oxy)ethyl)pyrrolidin-2-one], the results for the inhibition at 3 µM in experiment [1] (setting [2]) and in experiment [1] (setting [3]) were 19% and below 5%, respectively. Also, the inhibition at 10 µM on hNav1.1 (SCN1A) was found to be 46.9%.
The corresponding values for `COCCOc1noc2ccc(-c3ccc(OC(F)(F)F)cc3)cc12` [Example 60, 3-(2-methoxyethoxy)-5-(4-(trifluoromethoxy)phenyl)benzo[d]isoxazole] are 30.6%, below 5% and 27%.
Taken in the same sequence, the figures for `COc1ccnc(COc2noc3ccc(-c4ccc(OC(F)(F)F)cc4)cc23)n1` [Example 67, 3-((4-methoxypyrimidin-2-yl)methoxy)-5-(4-(trifluoromethoxy)phenyl)benzo[d]isoxazole] were 48.7%, below 5% and 5.26%.
Taken in the same sequence, the figures for `CC(COc1noc2ccc(-c3ccc(OC(F)(F)F)cc3)cc12)n1cccn1` (stereo not drawn) [Example 68, 3-(2-(1H-pyrazol-1-yl)propoxy)-5-(4-(trifluoromethoxy)phenyl)benzo[d]isoxazole] were 10.5%, below 5% and below 5%.
As to `CN1CCC[C@H]1COc1noc2ccc(-c3ccc(OC(F)(F)F)cc3)cc12` [Example 71, (S)-3-((1-methylpyrrolidin-2-yl)methoxy)-5-(4-(trifluoromethoxy)phenyl)benzo[d]isoxazole], the values for the inhibition at 3 µM in experiment [1] (setting [2]) and in experiment [1] (setting [3]) were 61.1% and 44.4%, respectively. In addition, the inhibition at 10 µM at hNav1.1 (SCN1A) is 93.8%.
The corresponding values for `O=C1NCC[C@H]1Oc1noc2ccc(-c3ccc(OC(F)(F)F)cc3)cc12` [Example 72, (R)-3-((5-(4-(trifluoromethoxy)phenyl)benzo[d]isoxazol-3-yl)oxy)pyrrolidin-2-one] are 17.7%, 10.8% and 78.1%.
As for `Cc1cnc(COc2noc3ccc(-c4ccc(OC(F)(F)F)cc4)cc23)cn1` [Example 73, 3-((5-methylpyrazin-2-yl)methoxy)-5-(4-(trifluoromethoxy)phenyl)benzo[d]isoxazole], the values for the inhibition at 3 µM in experiment [1] (setting [2]) and in experiment [1] (setting [3]) were 41.9% and below 5%, respectively. Besides, the inhibition at 10 µM at hNav1.1 (SCN1A) was 10.1%.
On to `FC(F)(F)Oc1ccc(-c2ccc3onc(OCc4cccnn4)c3c2)cc1` [Example 74, 3-(pyridazin-3-ylmethoxy)-5-(4-(trifluoromethoxy)phenyl)benzo[d]isoxazole], for which the inhibition at 3 µM in experiment [1] (setting [2]) is 23.5%; in experiment [1] (setting [3]), below 5%. For the same compound, the inhibition at 10 µM on hNav1.1 (SCN1A) is below 5%.
Take `O=C1OCCN1CCOc1noc2ccc(-c3ccc(OC(F)(F)F)cc3)cc12` [Example 75, 3-(2-((5-(4-(trifluoromethoxy)phenyl)benzo[d]isoxazol-3-yl)oxy)ethyl)oxazolidin-2-one]: the inhibition at 3 µM in experiment [1] (setting [2]) is 36.9%; in experiment [1] (setting [3]) it was below 5%. The inhibition at 10 µM on hNav1.1 (SCN1A) stood at 34.2%.
Turning to `Cc1cc(-c2ccc(OC(F)(F)F)cc2)cc2c(OCc3cn(C)nn3)noc12` [Example 87, 7-methyl-3-((1-methyl-1H-1,2,3-triazol-4-yl)methoxy)-5-(4-(trifluoromethoxy)phenyl)benzo[d]isoxazole], the inhibition at 3 µM in experiment [1] (setting [2]) came out at 54.7%; in experiment [1] (setting [3]), 39%. For the same compound, the inhibition at 10 µM at hNav1.1 (SCN1A) turned out to be 90.8%.
The corresponding values for `Fc1cccnc1COc1noc2ccc(-c3ccc(OC(F)(F)F)cc3)cc12` [Example 94, 3-((3-fluoropyridin-2-yl)methoxy)-5-(4-(trifluoromethoxy)phenyl)benzo[d]isoxazole] are 17.1%, below 5% and below 5%.
Consider `FC(F)(F)Oc1ccc(-c2ccc3onc(OCc4nnc(C5CC5)o4)c3c2)cc1` [Example 96, 3-((5-cyclopropyl-1,3,4-oxadiazol-2-yl)methoxy)-5-(4-(trifluoromethoxy)phenyl)benzo[d]isoxazole], for which the inhibition at 3 µM in experiment [1] (setting [2]) was 29.4%; in experiment [1] (setting [3]), below 5%. Also, the inhibition at 10 µM at hNav1.1 (SCN1A) stood at 29.4%.
